# Measurements published in the supplement of paper PMC9663587.
# Legend:
# Experiment in all cases: increase in dead-cell fraction, 72 h; higher = more death;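 further: breast cancer cell lines in 384-well plates, stained with Hoechst plus LIVE/DEAD far red dye and imaged, cells above an LDR intensity threshold counted dead, Hoechst-negative corpses included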
# R0-3306 = compound: C1=CC2=C(C=CC(=C2)C=C3C(=O)NC(=NCC4=CC=CS4)S3)N=C1 [R0-3306]
# Ipatasertib/GDC0068 = compound: CC(C)NC[C@@H](C(=O)N1CCN(c2ncnc3c2[C@H](C)C[C@H]3O)CC1)c1ccc(Cl)cc1 [Ipatasertib/GDC0068]
# Volasertib/BI6727 = compound: CC[C@@H]1C(=O)N(C)c2cnc(Nc3ccc(C(=O)N[C@H]4CC[C@H](N5CCN(CC6CC6)CC5)CC4)cc3OC)nc2N1C(C)C [Volasertib/BI6727]
# THZ-P1-2 = compound: CN(C)C/C=C/C(=O)NC1=CC=C(C=C1)C(=O)NC2=CC=CC(=C2)NC3=NC=NC(=C3)C4=CNC5=CC=CC=C54 [THZ-P1-2]
# BSJ-01-175 = compound: CN(C)C/C=C/C(=O)Nc1ccc(O[C@@H]2CCC[C@@H](Nc3ncc(Cl)c(-c4c[nH]c5ccccc45)n3)C2)cc1 [BSJ-01-175]
# Rucaparib = compound: CNCc1ccc(-c2[nH]c3cc(F)cc4c3c2CCNC4=O)cc1 [Rucaparib]
# [1] = compound: CNc1nc(-c2ccc3c(N)n[nH]c3c2)cc(N2C[C@@H](C(=O)NC3CCCCC3)CC[C@H]2C)n1
# Everolimus = compound: CO[C@H]1C[C@@H]2CC[C@@H](C)[C@@](O)(O2)C(=O)C(=O)N2CCCC[C@H]2C(=O)O[C@H]([C@H](C)C[C@@H]2CC[C@@H](OCCO)[C@H](OC)C2)CC(=O)[C@H](C)/C=C(\C)[C@@H](O)[C@@H](OC)C(=O)[C@H](C)C[C@H](C)/C=C/C=C/C=C/1C [Everolimus]
# [2] = compound: COc1ccc2c(c1)[C@]1(C[C@H]1c1ccc3c(/C=C/c4ccc(CN5C[C@@H](C)O[C@@H](C)C5)cc4)n[nH]c3c1)C(=O)N2
# AZD6738 = compound: C[C@@H]1COCCN1c1cc(C2([S@](C)(=N)=O)CC2)nc(-c2cc[nH]c3nccc2-3)n1 [AZD6738]
# Taselisib/GDC0032 = compound: Cc1nc(-c2cn3c(n2)-c2ccc(-c4cnn(C(C)(C)C(N)=O)c4)cc2OCC3)n(C(C)C)n1 [Taselisib/GDC0032]
# Tivantinib/ARQ197 = compound: O=C1NC(=O)[C@@H](c2cn3c4c(cccc24)CCC3)[C@@H]1c1c[nH]c2ccccc12 [Tivantinib/ARQ197]
cell line,measurement,setting,value
AU565,increase in dead-cell fraction,R0-3306; 0.001 µM,-0.0007
same,increase in dead-cell fraction,R0-3306; 0.003162 µM,0.0211
same,increase in dead-cell fraction,R0-3306; 0.01 µM,0.0272
same,increase in dead-cell fraction,R0-3306; 0.03162 µM,0.005
same,increase in dead-cell fraction,R0-3306; 0.1 µM,0.0121
same,increase in dead-cell fraction,R0-3306; 0.3162 µM,0.0139
same,increase in dead-cell fraction,R0-3306; 1 µM,0.0267
same,increase in dead-cell fraction,R0-3306; 3.162 µM,0.0545
same,increase in dead-cell fraction,R0-3306; 10 µM,0.329
same,increase in dead-cell fraction,Ipatasertib/GDC0068; 0.001 µM,0.0001
same,increase in dead-cell fraction,Ipatasertib/GDC0068; 0.003162 µM,0.0023
same,increase in dead-cell fraction,Ipatasertib/GDC0068; 0.01 µM,-0.0023
same,increase in dead-cell fraction,Ipatasertib/GDC0068; 0.03162 µM,-0.0006
same,increase in dead-cell fraction,Ipatasertib/GDC0068; 0.1 µM,0.0018
same,increase in dead-cell fraction,Ipatasertib/GDC0068; 0.3162 µM,0.0082
same,increase in dead-cell fraction,Ipatasertib/GDC0068; 1 µM,0.0032
same,increase in dead-cell fraction,Ipatasertib/GDC0068; 3.162 µM,0.0084
same,increase in dead-cell fraction,Ipatasertib/GDC0068; 10 µM,0.0293
same,increase in dead-cell fraction,Volasertib/BI6727; 0.0001 µM,-0.0025
same,increase in dead-cell fraction,Volasertib/BI6727; 0.0003162 µM,0.0017
same,increase in dead-cell fraction,Volasertib/BI6727; 0.001 µM,-0.0005
same,increase in dead-cell fraction,Volasertib/BI6727; 0.003162 µM,0.0085
same,increase in dead-cell fraction,Volasertib/BI6727; 0.01 µM,0.284
same,increase in dead-cell fraction,Volasertib/BI6727; 0.03162 µM,0.353
same,increase in dead-cell fraction,Volasertib/BI6727; 0.1 µM,0.412
same,increase in dead-cell fraction,Volasertib/BI6727; 0.3162 µM,0.353
same,increase in dead-cell fraction,Volasertib/BI6727; 1 µM,0.152
same,increase in dead-cell fraction,THZ-P1-2; 0.01 µM,-0.0013
same,increase in dead-cell fraction,THZ-P1-2; 0.03162 µM,-0.0105
same,increase in dead-cell fraction,THZ-P1-2; 0.1 µM,0.0091
same,increase in dead-cell fraction,THZ-P1-2; 0.3162 µM,-0.0029
same,increase in dead-cell fraction,THZ-P1-2; 1 µM,-0.0001
same,increase in dead-cell fraction,THZ-P1-2; 3.162 µM,-0.0022
same,increase in dead-cell fraction,THZ-P1-2; 10 µM,0.569
same,increase in dead-cell fraction,BSJ-01-175; 0.001 µM,-0.006
same,increase in dead-cell fraction,BSJ-01-175; 0.003162 µM,0.0214
same,increase in dead-cell fraction,BSJ-01-175; 0.01 µM,0.121
same,increase in dead-cell fraction,BSJ-01-175; 0.03162 µM,0.26
same,increase in dead-cell fraction,BSJ-01-175; 0.1 µM,0.296
same,increase in dead-cell fraction,BSJ-01-175; 0.3162 µM,0.35
same,increase in dead-cell fraction,BSJ-01-175; 1 µM,0.443
same,increase in dead-cell fraction,BSJ-01-175; 3.162 µM,0.432
same,increase in dead-cell fraction,BSJ-01-175; 10 µM,0.68
same,increase in dead-cell fraction,Rucaparib; 0.001 µM,0.0051
same,increase in dead-cell fraction,Rucaparib; 0.003162 µM,-0.0024
same,increase in dead-cell fraction,Rucaparib; 0.01 µM,0.0015
same,increase in dead-cell fraction,Rucaparib; 0.03162 µM,0.0073
same,increase in dead-cell fraction,Rucaparib; 0.1 µM,-0.0049
same,increase in dead-cell fraction,Rucaparib; 0.3162 µM,-0.0044
same,increase in dead-cell fraction,Rucaparib; 1 µM,-0.0017
same,increase in dead-cell fraction,Rucaparib; 3.162 µM,-0.0036
same,increase in dead-cell fraction,Rucaparib; 10 µM,-0.0017
same,increase in dead-cell fraction,[1]; 0.001 µM,-0.0175
same,increase in dead-cell fraction,[1]; 0.003162 µM,0.001
same,increase in dead-cell fraction,[1]; 0.01 µM,0.0046
same,increase in dead-cell fraction,[1]; 0.03162 µM,0.0008
same,increase in dead-cell fraction,[1]; 0.1 µM,0.0065
same,increase in dead-cell fraction,[1]; 0.3162 µM,0.0014
same,increase in dead-cell fraction,[1]; 1 µM,0.0253
same,increase in dead-cell fraction,[1]; 3.162 µM,0.0252
same,increase in dead-cell fraction,[1]; 10 µM,0.0432
same,increase in dead-cell fraction,Everolimus; 0.001 µM,0.0191
same,increase in dead-cell fraction,Everolimus; 0.003162 µM,0.0225
same,increase in dead-cell fraction,Everolimus; 0.01 µM,0.0257
same,increase in dead-cell fraction,Everolimus; 0.03162 µM,0.0132
same,increase in dead-cell fraction,Everolimus; 0.1 µM,0.0177
same,increase in dead-cell fraction,Everolimus; 0.3162 µM,0.0133
same,increase in dead-cell fraction,Everolimus; 1 µM,0.011
same,increase in dead-cell fraction,Everolimus; 3.162 µM,0.019
same,increase in dead-cell fraction,Everolimus; 10 µM,0.0283
same,increase in dead-cell fraction,[2]; 0.0001 µM,0.0001
same,increase in dead-cell fraction,[2]; 0.0003162 µM,-0.0015
same,increase in dead-cell fraction,[2]; 0.001 µM,0.0053
same,increase in dead-cell fraction,[2]; 0.003162 µM,0.016
same,increase in dead-cell fraction,[2]; 0.01 µM,0.139
same,increase in dead-cell fraction,[2]; 0.03162 µM,0.126
same,increase in dead-cell fraction,[2]; 0.1 µM,0.108
same,increase in dead-cell fraction,[2]; 0.3162 µM,0.0794
same,increase in dead-cell fraction,[2]; 1 µM,0.121
same,increase in dead-cell fraction,AZD6738; 0.001 µM,0.0013
same,increase in dead-cell fraction,AZD6738; 0.003162 µM,0.0103
same,increase in dead-cell fraction,AZD6738; 0.01 µM,-0.0124
same,increase in dead-cell fraction,AZD6738; 0.03162 µM,-0.0113
same,increase in dead-cell fraction,AZD6738; 0.1 µM,-0.0075
same,increase in dead-cell fraction,AZD6738; 0.3162 µM,-0.003
same,increase in dead-cell fraction,AZD6738; 1 µM,0.0064
same,increase in dead-cell fraction,AZD6738; 3.162 µM,0.0079
same,increase in dead-cell fraction,AZD6738; 10 µM,0.0831
same,increase in dead-cell fraction,Taselisib/GDC0032; 0.001 µM,0.0087
same,increase in dead-cell fraction,Taselisib/GDC0032; 0.003162 µM,0.0153
same,increase in dead-cell fraction,Taselisib/GDC0032; 0.01 µM,0.0378
same,increase in dead-cell fraction,Taselisib/GDC0032; 0.03162 µM,0.0611
same,increase in dead-cell fraction,Taselisib/GDC0032; 0.1 µM,0.0674
same,increase in dead-cell fraction,Taselisib/GDC0032; 0.3162 µM,0.0853
same,increase in dead-cell fraction,Taselisib/GDC0032; 1 µM,0.0898
same,increase in dead-cell fraction,Taselisib/GDC0032; 3.162 µM,0.0794
same,increase in dead-cell fraction,Taselisib/GDC0032; 10 µM,0.207
same,increase in dead-cell fraction,Tivantinib/ARQ197; 0.001 µM,-0.0007
same,increase in dead-cell fraction,Tivantinib/ARQ197; 0.003162 µM,-0.0033
same,increase in dead-cell fraction,Tivantinib/ARQ197; 0.01 µM,-0.0012
same,increase in dead-cell fraction,Tivantinib/ARQ197; 0.03162 µM,-0.0029
same,increase in dead-cell fraction,Tivantinib/ARQ197; 0.1 µM,0.0087
same,increase in dead-cell fraction,Tivantinib/ARQ197; 0.3162 µM,0.0601
same,increase in dead-cell fraction,Tivantinib/ARQ197; 1 µM,0.263
same,increase in dead-cell fraction,Tivantinib/ARQ197; 3.162 µM,0.306
same,increase in dead-cell fraction,Tivantinib/ARQ197; 10 µM,0.3
